Test results from patent EP0126043A1, “Carbohydrate derivatives and compositions thereof for therapeutic or diagnostic use” (priority 1983, dated 1984).
Values after ≈ are worked out from the molar mass of the structure shown.

Key:
S. pneumoniae [1] = assay: Inhibition of adherence of pneumococci to human pharyngeal epithelium cells (bacteria preincubated with free receptor); assay type: cell-based; settings: for activity at 100 µg/mL / activity at 1000 µg/mL / activity at 5000 µg/mL / activity at 10000 µg/mL: read-out: Adherence % of control Average; for IC50: read-out: concentration for 50% inhibition of adherence; for inhibition of adherence (result in words): pretreatment of the pneumococci with the substance; for Inhibition of adherence % of control Average: Conc. 200 µg/ml, bacteria preincubated with the glycoconjugate before adding epithelium cells, adhesion in percent of saline control
Method: (§1) Two strains of S. Pneumoniae, EF3114 and EF 10276 (both of the capsular type 6A isolated from the nasopharynx of patients having inflammation in the middle ear) were maintained in a lyophilized state. For adherence test the lyophiles were transferred to blood agar plates and cultivated over night, were then allowed to grow for18 hours in a synthetic medium (Ref. 1) supplemented with 2 g/l ascorbic acid and such as described in (Ref. 2). The bacteria were harvested by centrifugation and suspended in saline solution (Ref. 3).
(§2) Binding to humane nasopharyngeal epithelium cells was investigated in vitro as previously described (Ref. 3). Bacterial cells (10^9/ml) and pharyngeal epithelium cells from a healthy donor (10^4/ml) were mixed, centrifugated at 1500xg for 10 minutes and incubated at 37°C for 30 minutes. After washing twice in 2.5 ml salines for separating epithelium cells from non-adhering bacteria the number of bacteria adhering at 40 epithelium cells were counted and the average number per cell was determined.
For inhibition of adhesion the bacterium concentration giving an average adhesion value of 20-300 bacteria per cell was determined. This inoculate was then preincubated with dilutions of the solutions of potential receptor activity for 15 minutes at 37°C.
Epithelium cells were added and adhesion testing was carried out as described. The adhesion was given in percent of the saline as a control sample.

S. pneumoniae [2] = assay: Induction/increase of pneumococcal adherence by coating epithelium cells with glycoconjugate; assay type: cell-based; settings: for Increase of adherence % of control Average: Conc. 200 µg/ml, epithelium cells preincubated with glycoconjugate, washed and used for adherence testing; for effect of coating of pharyngeal epithelium cells on adherence (result in words): coating with 200 µg/ml
Method: as §1
as §2, with “healthy male” for “healthy”
Association of receptor active glycolipids with epithelium cells or erythrocytes can increase binding to epithelium cells already containing the receptor or induce binding of cells which have not previously contained receptor. Rabbit erythrocytes (100 ul of a 5 % suspension) were mixed with a neolactotetraosyl ceramide, sialylneolactotetra- osyleeramide or globotetraosylceramide (500 ul of . suspensions of 200 ug/ml) and incubated at 37° for 3 hours with rotation (Ref. 16). After elimination of unbound glycolipid by repeated washing the erythrocyte concentration was again adjusted to 5 % and used for haemagglutination. Parallel to the tests regarding inhibition of adherence the humane nasopharyngeal epithelium cells were pretreated with decreasing concentrations of glycolipid, incubated for 2 hours at 37°C, washed and used for testing of adherence.

Molecule | activity at 100 µg/mL (S. pneumoniae [1]; Streptococcus pneumoniae) | activity at 1000 µg/mL (S. pneumoniae [1]; Streptococcus pneumoniae) | activity at 5000 µg/mL (S. pneumoniae [1]; Streptococcus pneumoniae) | activity at 10000 µg/mL (S. pneumoniae [1]; Streptococcus pneumoniae) | further results
CC(=O)N[C@H]1[C@H](O[C@H]2[C@@H](O)[C@@H](CO)O[C@@H](O[C@H]3[C@H](O)[C@@H](O)C(O)O[C@@H]3CO)[C@@H]2O)O[C@H](CO)[C@@H](O[C@@H]2O[C@H](CO)[C@H](O)[C@H](O)[C@H]2O)[C@@H]1O (stereo partly shown) [Substance 5, Neolactotetraose] | 52% | 28% | 0% | 1% | IC50 (S. pneumoniae [1]; Streptococcus pneumoniae): ~400 µg/mL (≈ 565 µM)
CC(=O)N[C@H]1[C@H](O[C@H]2[C@@H](O)[C@@H](CO)O[C@@H](O[C@H]3[C@H](O)[C@@H](O)C(O)O[C@@H]3CO)[C@@H]2O)O[C@H](CO)[C@@H](O)[C@@H]1O[C@@H]1O[C@H](CO)[C@H](O)[C@H](O)[C@H]1O (stereo partly shown) [Substance 6, Lactotetraose] | 68% | 25% | 4% |  | IC50 (S. pneumoniae [1]; Streptococcus pneumoniae): ~400 µg/mL (≈ 565 µM)
CO[C@H]1O[C@H](CO)[C@@H](O[C@@H]2O[C@H](CO)[C@H](O)[C@H](O)[C@H]2O)[C@H](O)[C@H]1NC(C)=O [Substance 8, Methyl 2-acetamido-2-deoxy-4-O-(β-D-galactopyranosvl)-α--D-glycopyranoside] |  | 96% | 98% | 129% | inhibition of adherence (result in words) (S. pneumoniae [1]): inactive
CO[C@@H]1O[C@H](CO)[C@@H](O[C@@H]2O[C@H](CO)[C@H](O)[C@H](O)[C@H]2O)[C@H](O)[C@H]1NC(C)=O [Substance 9, Methyl 2-acetamido-2-deoxy-4-O-(β-D-galactopyranosyl)-β--D-glycopyranoside] |  | 96% | 45% | 29% | minimal effective concentration (S. pneumoniae [1]; Streptococcus pneumoniae, read-out: concentration at which adherence was inhibited): ~5000 µg/mL
CC(=O)N[C@H]1C(O)O[C@H](CO)[C@@H](O[C@@H]2O[C@H](CO)[C@H](O)[C@H](O)[C@H]2O)[C@@H]1O (stereo partly shown) [Substance 10, N-acetyllactose amine, reference compound] |  | 95% | 144% | 127% | inhibition of adherence (result in words) (S. pneumoniae [1]): inactive
CO[C@@H]1O[C@H](CO)[C@H](O[C@@H]2O[C@H](CO)[C@@H](O)[C@H](O)[C@H]2NC(C)=O)[C@H](O)[C@H]1O [Substance 11, Methyl 4-0-(2-acetamido-2-deoxy-β-D-glycopyranosyl)-β-D--galactopyranoside] | 65% | 72% | 73% | 75% | inhibition of adherence (result in words) (S. pneumoniae [1]): inactive
CO[C@@H]1O[C@H](CO)[C@H](O)[C@H](O[C@@H]2O[C@H](CO)[C@@H](O)[C@H](O)[C@H]2NC(C)=O)[C@H]1O [Substance 12, Methyl 3-0-(2-acetamido-2-deoxy-β-D-glycopyranosyl)-β-D--galactopyranoside] | 66% | 105% | 15% | 4% | 
CCO[C@@H]1O[C@H](CO)[C@@H](O[C@@H]2O[C@H](CO)[C@H](O)[C@H](O)[C@H]2O)[C@H](O)[C@H]1NC(C)=O [Substance 13, Galβ1→4GlcNAcβ1-O-Et] |  | 67% | 38% | 31% | 
CCO[C@@H]1O[C@H](CO)[C@@H](O[C@@H]2O[C@H](CO)[C@H](O)[C@H](O)[C@H]2O)[C@H](O)[C@H]1O [Substance 14, Ethyl 4-0-β-D-galactopyranosyl-β-D-glycopyranoside] |  | 85% | 78% | 63% | 
CO[C@@H]1O[C@H](CO)[C@H](O)[C@H](O[C@@H]2O[C@H](CO)[C@@H](O[C@@H]3O[C@H](CO)[C@H](O)[C@H](O)[C@H]3O)[C@H](O)[C@H]2NC(C)=O)[C@H]1O [Substance 15, Methyl 3-0-2-acetamido-2-deoxy-4-0-(β-D-galactopyranosyl)--β-D-glycopyranosyl-β-D-galactopyranoside] | 60% | 45% | 11% | 2% | 
CO[C@@H]1O[C@H](CO)[C@@H](O[C@@H]2O[C@H](CO)[C@H](O)[C@H](O[C@@H]3O[C@H](CO)[C@@H](O[C@@H]4O[C@H](CO)[C@H](O)[C@H](O)[C@H]4O)[C@H](O)[C@H]3NC(C)=O)[C@H]2O)[C@H](O)[C@H]1O [Substance 16, Methyl 4-0-{3-0-[2-acetamido-2-deoxy-4-0-(D-galactopy-ranasyl)-β-D-glucopyranosyl]-β-D-galactopyranosyl}-β-D-glucopyranoside] | 104% | 11% | 1% | 4% | 
Galβ1 → 3 GlcNAc-β1-O-Bz [Substance 17] |  |  |  |  | Adherence % of control Average (S. pneumoniae [1]; Conc. 0.1 mg/ml): 88 % of control; Adherence % of control Average (S. pneumoniae [1]; Conc. 1 mg/ml): 86 % of control; Adherence % of control Average (S. pneumoniae [1]; Conc. 5 mg/ml): 51 % of control; Adherence % of control Average (S. pneumoniae [1]; Conc. 10 mg/ml): 8 % of control
N-acetylneuraminosyl neolactotetraosyl ceramide [Substance 3, reference compound] |  |  |  |  | Increase of adherence % of control Average (S. pneumoniae [2]): 94 % of control; effect of coating of pharyngeal epithelium cells on adherence (result in words) (S. pneumoniae [2]): no effect; Inhibition of adherence % of control Average (S. pneumoniae [1]): 100 % of control; inhibition of adherence (result in words) (S. pneumoniae [1]): no effect
globotetraosylceramide |  |  |  |  | effect of coating of pharyngeal epithelium cells on adherence (result in words) (S. pneumoniae [2]): no effect
globotetraosylceramide [Substance 4, reference compound] |  |  |  |  | Increase of adherence % of control Average (S. pneumoniae [2]): 100 % of control
neolactotetraosyl ceramide [Substance 2] |  |  |  |  | Increase of adherence % of control Average (S. pneumoniae [2]): 190 % of control; effect of coating of pharyngeal epithelium cells on adherence (result in words) (S. pneumoniae [2]): increased adherence; Inhibition of adherence % of control Average (S. pneumoniae [1]): 59 % of control; adherence, % of the saline as a control (S. pneumoniae [1]; pretreatment of the pneumococci, at 200 µg/ml, 15 min): 59%
